What was measured:
Assay type in all cases: in vivo
Zinnia elegans Jacq. = test: Bioassay of herbicidal activity in greenhouse (further screening)
Experimental: (§1) Determination of herbicidal activity of compounds of the present invention against weeds was carried out by the following procedures:
(§2) Seeds of monocotyledonous and dicotyledonous weeds were sown in nutrition soil in paper pot (7 cm diameter), covered with soil in 1 cm and grown in the greenhouse under good growth conditions (temperature, atmospheric humidity, water supply). The compounds of the present invention as emulsifiable concentrate, were applied in pre-emergence and post-emergence treatment by track sprayer (Engineer Research Ltd., pressure 1.95 kg/cm^2, volume 500 L/hm^2, track speed 1.48 km/h). Pre-emergence treatment was conducted after seeding 24 hours and post-emergence treatment was done when the respective weeds reached predetermined leaf stage (grass weed 2- to 3-leaf stage, broad-leaf weed 2- to 4-leaf stage), the state of growth of the respective weeds were visually observed to determine the growth inhibition rate (%) in accordance with the following evaluation standard.
(§3) Growth inhibition rate (%): 0=no discernible action: 100=all weeds dead or not emerged.

[1] = system: Setaria glauca (L.) Beauv.; test: as above
Experimental: as §1, §2, §3

[2] = system: Abutilon theophrasti Medic.; test: as above
Experimental: as §1, §2, §3

[3] = system: Echinochloa crus-galli (L.) Beauv.; test: as above
Experimental: as §1, §2, §3

[4] = system: broad-leaf weeds and grass weeds; test: General screening of herbicidal activity in greenhouse; details: 1000 g a.i./hm^2;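 note: 0 means no visible effect and 100 means all weeds dead or not emerged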
Experimental: as §1, §2, §3

## CCCS(=O)(=O)OCC1(C)CC(c2cc(-n3c(=O)cc(C(F)(F)F)n(C)c3=O)c(F)cc2Cl)=NO1 (stereo not drawn) [Compound 90]
Zinnia elegans Jacq.; dose 37.5 g a.i./hm^2
  Growth inhibition rate, Post-emergence treatment, Zinnia elegans Jacq.: 98%
  Growth inhibition rate, Pre-emergence treatment, Zinnia elegans Jacq.: 5%
Zinnia elegans Jacq.; dose 150 g a.i./hm^2
  Growth inhibition rate, Post-emergence treatment, Zinnia elegans Jacq.: 100%
  Growth inhibition rate, Pre-emergence treatment, Zinnia elegans Jacq.: 30%
Zinnia elegans Jacq.; dose 600 g a.i./hm^2
  Growth inhibition rate, Post-emergence treatment, Zinnia elegans Jacq.: 100%
  Growth inhibition rate, Pre-emergence treatment, Zinnia elegans Jacq.: 80%
[1]; dose 37.5 g a.i./hm^2
  Growth inhibition rate, Post-emergence treatment, Setaria glauca (L.) Beauv.: 25%
  Growth inhibition rate, Pre-emergence treatment, Setaria glauca (L.) Beauv.: 5%
[1]; dose 150 g a.i./hm^2
  Growth inhibition rate, Post-emergence treatment, Setaria glauca (L.) Beauv.: 60%
  Growth inhibition rate, Pre-emergence treatment, Setaria glauca (L.) Beauv.: 20%
[1]; dose 600 g a.i./hm^2
  Growth inhibition rate, Post-emergence treatment, Setaria glauca (L.) Beauv.: 80%
  Growth inhibition rate, Pre-emergence treatment, Setaria glauca (L.) Beauv.: 50%
[2]; dose 37.5 g a.i./hm^2
  Growth inhibition rate, Post-emergence treatment, Abutilon theophrasti Medic.: 100%
  Growth inhibition rate, Pre-emergence treatment, Abutilon theophrasti Medic.: 0%
[2]; dose 150 g a.i./hm^2
  Growth inhibition rate, Post-emergence treatment, Abutilon theophrasti Medic.: 100%
  Growth inhibition rate, Pre-emergence treatment, Abutilon theophrasti Medic.: 10%
[2]; dose 600 g a.i./hm^2
  Growth inhibition rate, Post-emergence treatment, Abutilon theophrasti Medic.: 100%
  Growth inhibition rate, Pre-emergence treatment, Abutilon theophrasti Medic.: 30%
[3]; dose 37.5 g a.i./hm^2
  Growth inhibition rate, Post-emergence treatment, Echinochloa crus-galli (L.) Beauv.: 15%
  Growth inhibition rate, Pre-emergence treatment, Echinochloa crus-galli (L.) Beauv.: 0%
[3]; dose 150 g a.i./hm^2
  Growth inhibition rate, Post-emergence treatment, Echinochloa crus-galli (L.) Beauv.: 35%
  Growth inhibition rate, Pre-emergence treatment, Echinochloa crus-galli (L.) Beauv.: 10%
[3]; dose 600 g a.i./hm^2
  Growth inhibition rate, Post-emergence treatment, Echinochloa crus-galli (L.) Beauv.: 40%
  Growth inhibition rate, Pre-emergence treatment, Echinochloa crus-galli (L.) Beauv.: 25%
[4]
  pre-emergence and post-emergence herbicidal activity against broad-leaf weeds and grass weeds: good

## Cn1c(C(F)(F)F)cc(=O)n(-c2cc(C3=NOC(C)(COS(C)(=O)=O)C3)c(Cl)cc2F)c1=O (stereo not drawn) [Compound 88]
Zinnia elegans Jacq.; dose 7.5 g a.i./hm^2
  Growth inhibition rate, Post-emergence treatment, Zinnia elegans Jacq.: 98%
  Growth inhibition rate, Pre-emergence treatment, Zinnia elegans Jacq.: 20%
Zinnia elegans Jacq.; dose 15 g a.i./hm^2
  Growth inhibition rate, Post-emergence treatment, Zinnia elegans Jacq.: 100%
  Growth inhibition rate, Pre-emergence treatment, Zinnia elegans Jacq.: 30%
Zinnia elegans Jacq.; dose 37.5 g a.i./hm^2
  Growth inhibition rate, Post-emergence treatment, Zinnia elegans Jacq.: 100%
  Growth inhibition rate, Pre-emergence treatment, Zinnia elegans Jacq.: 45%
Zinnia elegans Jacq.; dose 150 g a.i./hm^2
  Growth inhibition rate, Post-emergence treatment, Zinnia elegans Jacq.: 100%
  Growth inhibition rate, Pre-emergence treatment, Zinnia elegans Jacq.: 100%
Zinnia elegans Jacq.; dose 600 g a.i./hm^2
  Growth inhibition rate, Post-emergence treatment, Zinnia elegans Jacq.: 100%
  Growth inhibition rate, Pre-emergence treatment, Zinnia elegans Jacq.: 100%
[1]; dose 7.5 g a.i./hm^2
  Growth inhibition rate, Post-emergence treatment, Setaria glauca (L.) Beauv.: 25%
  Growth inhibition rate, Pre-emergence treatment, Setaria glauca (L.) Beauv.: 65%
[1]; dose 15 g a.i./hm^2
  Growth inhibition rate, Post-emergence treatment, Setaria glauca (L.) Beauv.: 30%
  Growth inhibition rate, Pre-emergence treatment, Setaria glauca (L.) Beauv.: 80%
[1]; dose 37.5 g a.i./hm^2
  Growth inhibition rate, Post-emergence treatment, Setaria glauca (L.) Beauv.: 45%
  Growth inhibition rate, Pre-emergence treatment, Setaria glauca (L.) Beauv.: 30%
[1]; dose 150 g a.i./hm^2
  Growth inhibition rate, Post-emergence treatment, Setaria glauca (L.) Beauv.: 70%
  Growth inhibition rate, Pre-emergence treatment, Setaria glauca (L.) Beauv.: 85%
[1]; dose 600 g a.i./hm^2
  Growth inhibition rate, Post-emergence treatment, Setaria glauca (L.) Beauv.: 98%
  Growth inhibition rate, Pre-emergence treatment, Setaria glauca (L.) Beauv.: 100%
[2]; dose 7.5 g a.i./hm^2
  Growth inhibition rate, Post-emergence treatment, Abutilon theophrasti Medic.: 98%
  Growth inhibition rate, Pre-emergence treatment, Abutilon theophrasti Medic.: 98%
[2]; dose 15 g a.i./hm^2
  Growth inhibition rate, Post-emergence treatment, Abutilon theophrasti Medic.: 100%
  Growth inhibition rate, Pre-emergence treatment, Abutilon theophrasti Medic.: 100%
[2]; dose 37.5 g a.i./hm^2
  Growth inhibition rate, Post-emergence treatment, Abutilon theophrasti Medic.: 98%
  Growth inhibition rate, Pre-emergence treatment, Abutilon theophrasti Medic.: 85%
[2]; dose 150 g a.i./hm^2
  Growth inhibition rate, Post-emergence treatment, Abutilon theophrasti Medic.: 100%
  Growth inhibition rate, Pre-emergence treatment, Abutilon theophrasti Medic.: 100%
[2]; dose 600 g a.i./hm^2
  Growth inhibition rate, Post-emergence treatment, Abutilon theophrasti Medic.: 100%
  Growth inhibition rate, Pre-emergence treatment, Abutilon theophrasti Medic.: 100%
[3]; dose 7.5 g a.i./hm^2
  Growth inhibition rate, Post-emergence treatment, Echinochloa crus-galli (L.) Beauv.: 15%
  Growth inhibition rate, Pre-emergence treatment, Echinochloa crus-galli (L.) Beauv.: 5%
[3]; dose 15 g a.i./hm^2
  Growth inhibition rate, Post-emergence treatment, Echinochloa crus-galli (L.) Beauv.: 20%
  Growth inhibition rate, Pre-emergence treatment, Echinochloa crus-galli (L.) Beauv.: 10%
[3]; dose 37.5 g a.i./hm^2
  Growth inhibition rate, Post-emergence treatment, Echinochloa crus-galli (L.) Beauv.: 25%
  Growth inhibition rate, Pre-emergence treatment, Echinochloa crus-galli (L.) Beauv.: 15%
[3]; dose 150 g a.i./hm^2
  Growth inhibition rate, Post-emergence treatment, Echinochloa crus-galli (L.) Beauv.: 60%
  Growth inhibition rate, Pre-emergence treatment, Echinochloa crus-galli (L.) Beauv.: 80%
[3]; dose 600 g a.i./hm^2
  Growth inhibition rate, Post-emergence treatment, Echinochloa crus-galli (L.) Beauv.: 95%
  Growth inhibition rate, Pre-emergence treatment, Echinochloa crus-galli (L.) Beauv.: 100%
[4]
  pre-emergence and post-emergence herbicidal activity against broad-leaf weeds and grass weeds: good

## CCOCCOC(=O)C1(C)CC(c2cc(-n3c(=O)cc(C(F)(F)F)n(C)c3=O)c(F)cc2Cl)=NO1 (stereo not drawn) [Compound 15]
Zinnia elegans Jacq.; dose 7.5 g a.i./hm^2
  Growth inhibition rate, Post-emergence treatment, Zinnia elegans Jacq.: 100%
Zinnia elegans Jacq.; dose 15 g a.i./hm^2
  Growth inhibition rate, Post-emergence treatment, Zinnia elegans Jacq.: 100%
Zinnia elegans Jacq.; dose 30.0 g a.i./hm^2
  Growth inhibition rate, Post-emergence treatment, Zinnia elegans Jacq.: 100%
Zinnia elegans Jacq.; dose 60.0 g a.i./hm^2
  Growth inhibition rate, Post-emergence treatment, Zinnia elegans Jacq.: 100%
Zinnia elegans Jacq.; dose 120.0 g a.i./hm^2
  Growth inhibition rate, Post-emergence treatment, Zinnia elegans Jacq.: 100%
[1]; dose 7.5 g a.i./hm^2
  Growth inhibition rate, Post-emergence treatment, Setaria glauca (L.) Beauv.: 75%
[1]; dose 15 g a.i./hm^2
  Growth inhibition rate, Post-emergence treatment, Setaria glauca (L.) Beauv.: 98%
[1]; dose 30.0 g a.i./hm^2
  Growth inhibition rate, Post-emergence treatment, Setaria glauca (L.) Beauv.: 100%
[1]; dose 60.0 g a.i./hm^2
  Growth inhibition rate, Post-emergence treatment, Setaria glauca (L.) Beauv.: 100%
[1]; dose 120.0 g a.i./hm^2
  Growth inhibition rate, Post-emergence treatment, Setaria glauca (L.) Beauv.: 100%
[2]; dose 7.5 g a.i./hm^2
  Growth inhibition rate, Post-emergence treatment, Abutilon theophrasti Medic.: 65%
[2]; dose 15 g a.i./hm^2
  Growth inhibition rate, Post-emergence treatment, Abutilon theophrasti Medic.: 100%
[2]; dose 30.0 g a.i./hm^2
  Growth inhibition rate, Post-emergence treatment, Abutilon theophrasti Medic.: 100%
[2]; dose 60.0 g a.i./hm^2
  Growth inhibition rate, Post-emergence treatment, Abutilon theophrasti Medic.: 100%
[2]; dose 120.0 g a.i./hm^2
  Growth inhibition rate, Post-emergence treatment, Abutilon theophrasti Medic.: 100%
[3]; dose 7.5 g a.i./hm^2
  Growth inhibition rate, Post-emergence treatment, Echinochloa crus-galli (L.) Beauv.: 70%
[3]; dose 15 g a.i./hm^2
  Growth inhibition rate, Post-emergence treatment, Echinochloa crus-galli (L.) Beauv.: 85%
[3]; dose 30.0 g a.i./hm^2
  Growth inhibition rate, Post-emergence treatment, Echinochloa crus-galli (L.) Beauv.: 100%
[3]; dose 60.0 g a.i./hm^2
  Growth inhibition rate, Post-emergence treatment, Echinochloa crus-galli (L.) Beauv.: 100%
[3]; dose 120.0 g a.i./hm^2
  Growth inhibition rate, Post-emergence treatment, Echinochloa crus-galli (L.) Beauv.: 100%
[4]
  pre-emergence and post-emergence herbicidal activity against broad-leaf weeds and grass weeds: good

## CC(C)OC(=O)C1(C)CC(c2cc(-n3c(=O)cc(C(F)(F)F)n(C)c3=O)c(F)cc2Cl)=NO1 (stereo not drawn) [Compound 10]
Zinnia elegans Jacq.; dose 7.5 g a.i./hm^2
  Growth inhibition rate, Post-emergence treatment, Zinnia elegans Jacq.: 100%
Zinnia elegans Jacq.; dose 15 g a.i./hm^2
  Growth inhibition rate, Post-emergence treatment, Zinnia elegans Jacq.: 100%
Zinnia elegans Jacq.; dose 30.0 g a.i./hm^2
  Growth inhibition rate, Post-emergence treatment, Zinnia elegans Jacq.: 100%
Zinnia elegans Jacq.; dose 60.0 g a.i./hm^2
  Growth inhibition rate, Post-emergence treatment, Zinnia elegans Jacq.: 100%
Zinnia elegans Jacq.; dose 120.0 g a.i./hm^2
  Growth inhibition rate, Post-emergence treatment, Zinnia elegans Jacq.: 100%
[1]; dose 7.5 g a.i./hm^2
  Growth inhibition rate, Post-emergence treatment, Setaria glauca (L.) Beauv.: 90%
[1]; dose 15 g a.i./hm^2
  Growth inhibition rate, Post-emergence treatment, Setaria glauca (L.) Beauv.: 100%
[1]; dose 30.0 g a.i./hm^2
  Growth inhibition rate, Post-emergence treatment, Setaria glauca (L.) Beauv.: 100%
[1]; dose 60.0 g a.i./hm^2
  Growth inhibition rate, Post-emergence treatment, Setaria glauca (L.) Beauv.: 100%
[1]; dose 120.0 g a.i./hm^2
  Growth inhibition rate, Post-emergence treatment, Setaria glauca (L.) Beauv.: 100%
[2]; dose 7.5 g a.i./hm^2
  Growth inhibition rate, Post-emergence treatment, Abutilon theophrasti Medic.: 100%
[2]; dose 15 g a.i./hm^2
  Growth inhibition rate, Post-emergence treatment, Abutilon theophrasti Medic.: 100%
[2]; dose 30.0 g a.i./hm^2
  Growth inhibition rate, Post-emergence treatment, Abutilon theophrasti Medic.: 100%
[2]; dose 60.0 g a.i./hm^2
  Growth inhibition rate, Post-emergence treatment, Abutilon theophrasti Medic.: 100%
[2]; dose 120.0 g a.i./hm^2
  Growth inhibition rate, Post-emergence treatment, Abutilon theophrasti Medic.: 100%
[3]; dose 7.5 g a.i./hm^2
  Growth inhibition rate, Post-emergence treatment, Echinochloa crus-galli (L.) Beauv.: 90%
[3]; dose 15 g a.i./hm^2
  Growth inhibition rate, Post-emergence treatment, Echinochloa crus-galli (L.) Beauv.: 98%
[3]; dose 30.0 g a.i./hm^2
  Growth inhibition rate, Post-emergence treatment, Echinochloa crus-galli (L.) Beauv.: 100%
[3]; dose 60.0 g a.i./hm^2
  Growth inhibition rate, Post-emergence treatment, Echinochloa crus-galli (L.) Beauv.: 100%
[3]; dose 120.0 g a.i./hm^2
  Growth inhibition rate, Post-emergence treatment, Echinochloa crus-galli (L.) Beauv.: 100%
[4]
  pre-emergence and post-emergence herbicidal activity against broad-leaf weeds and grass weeds: good
